Experimental data published in PubChem BioAssay AID192 (DTP/NCI, 2004).
Values joined by “and” are separate entries in the source; they are usually repeats but may differ in a detail not shown here. Equal entries are not always repeated. Toxic doses and inconclusive results are not listed. The calls were made as follows: active = survival T/C of 150% or more; inactive = T/C below 125% in these data. Peptide text beside a SMILES is read from it. * marks the point of attachment. Cbz = O=C(OCc1ccccc1)*; CH2Cl = ClC*

Test system: BDF1 mice, B16 melanoma ip, median survival T/C
Experiment: NCI In Vivo Anticancer Drug Screen. Data for tumor model B16 Melanoma (intraperitoneal) in B6D2F1 (BDF1) mice
Settings: endpoint: median survival time, higher = longer survival
How it was run: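 Compounds were tested in mice carrying transplantable tumors. Survival or tumor size was recorded, and each value is the treated-group measurement (T) divided by that of the vehicle-treated control group (C).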

[1] = dose: 1.56 mg/kg/injection, schedule: Q01DX009 (ip), vehicle: saline
[2] = dose: 3.12 mg/kg/injection, schedule: Q01DX009 (ip), vehicle: saline
[3] = dose: 6.25 mg/kg/injection, schedule: Q01DX009 (ip), vehicle: saline
[4] = dose: 50.0 mg/kg/injection, schedule: Q01DX009 (ip), vehicle: Klucel (hydroxypropylcellulose) (HPC)
[5] = dose: 200.0 mg/kg/injection, schedule: Q01DX009 (ip), vehicle: Klucel (hydroxypropylcellulose) (HPC)
[6] = dose: 100.0 mg/kg/injection, schedule: Q01DX009 (ip), vehicle: Klucel (hydroxypropylcellulose) (HPC)
[7] = dose: 12.5 mg/kg/injection, schedule: Q01DX009 (ip), vehicle: saline with Tween-80
[8] = dose: 25.0 mg/kg/injection, schedule: Q01DX009 (ip), vehicle: saline with Tween-80
[9] = dose: 50.0 mg/kg/injection, schedule: Q01DX009 (ip), vehicle: saline with Tween-80

Measured: T/C

CC(C)CC(NC(=O)OCc1ccccc1)C(=O)NC(Cc1ccccc1)C(=O)CCl (stereo not drawn) (Cbz-Leu-Phe-CH2Cl; configuration not given here)
inactive: [1] 99 % of control | [2] 99 % of control | [3] 97 % of control

COc1c(Cl)c2c(c(OC)c1OC)-c1ccc(OC)c(=O)cc1C(NC(C)=O)CC2 (stereo unspecified)
inactive: dose: 0.38 mg/kg/injection, schedule: Q01DX009 (ip), vehicle: Klucel (hydroxypropylcellulose) (HPC) 118 % of control | dose: 0.75 mg/kg/injection, schedule: Q01DX009 (ip), vehicle: Klucel (hydroxypropylcellulose) (HPC) 123 % of control | dose: 3.0 mg/kg/injection, schedule: Q01DX009 (ip), vehicle: Klucel (hydroxypropylcellulose) (HPC) 109 % of control

COC(=O)C1(C)CCC(c2ccc(OC)cc2)CC1=O (stereo unspecified)
inactive: [4] 90 % of control | [5] 87 % of control

NC(=O)CC(N)C(=O)O (stereo unspecified)
inactive: dose: 50.0 mg/kg/injection, schedule: Q01DX009 (ip), vehicle: other 99 % of control | dose: 100.0 mg/kg/injection, schedule: Q01DX009 (ip), vehicle: other 96 % of control | dose: 100.0 mg/kg/injection, schedule: Q01DX009 (ip), vehicle: saline 92 % of control | dose: 200.0 mg/kg/injection, schedule: Q01DX009 (ip), vehicle: other 105 % of control | dose: 200.0 mg/kg/injection, schedule: Q01DX009 (ip), vehicle: saline 87 % of control | dose: 400.0 mg/kg/injection, schedule: Q01DX009 (ip), vehicle: other 96 % of control | dose: 400.0 mg/kg/injection, schedule: Q01DX009 (ip), vehicle: saline 87 % of control | dose: 800.0 mg/kg/injection, schedule: Q01DX009 (ip), vehicle: other 104 % of control | dose: 1600.0 mg/kg/injection, schedule: Q01DX009 (ip), vehicle: other 103 % of control

NC(=O)c1ccccc1OCc1ccccc1
inactive: dose: 75.0 mg/kg/injection, schedule: Q01DX009 (ip), vehicle: Klucel (hydroxypropylcellulose) (HPC) 100 % of control | dose: 150.0 mg/kg/injection, schedule: Q01DX009 (ip), vehicle: Klucel (hydroxypropylcellulose) (HPC) 101 % of control | dose: 300.0 mg/kg/injection, schedule: Q01DX009 (ip), vehicle: Klucel (hydroxypropylcellulose) (HPC) 101 % of control

Cc1cc(=O)c2c(o1)-c1c(cc(O)c(O)c1C(=O)O)OC2
inactive: dose: 12.5 mg/kg/injection, schedule: Q01DX009 (ip), vehicle: Klucel (hydroxypropylcellulose) (HPC) 101 % of control | dose: 25.0 mg/kg/injection, schedule: Q01DX009 (ip), vehicle: Klucel (hydroxypropylcellulose) (HPC) 105 % of control | [4] 105 % of control | [6] 102 % of control | [5] 106 % of control

COc1cc2c[n+](C)c3c4cc5c(cc4ccc3c2cc1OC)OCO5
inactive: dose: 5.0 mg/kg/injection, schedule: Q01DX009 (ip), vehicle: water 122 % of control | [7] 113 % of control | [8] 115 % of control | dose: 40.0 mg/kg/injection, schedule: Q01DX009 (ip), vehicle: water 120 % of control | [9] 97 % of control

CCOc1ccc2nc(Cl)sc2c1
inactive: dose: 100.0 mg/kg/injection, schedule: Q04DX003 (ip), vehicle: Klucel (hydroxypropylcellulose) (HPC) 105 % of control

CC(=O)[C@]1(O)Cc2c(O)c3c(c(O)c2[C@@H](OC2CC(N)C(O)C(C)O2)C1)C(=O)c1c(O)cccc1C3=O (stereo partly specified)
inactive: dose: 0.04 mg/kg/injection, schedule: Q01DX001 (ip), vehicle: water 105 % of control | dose: 0.08 mg/kg/injection, schedule: Q01DX001 (ip), vehicle: water 113 % of control and 124 % of control | dose: 0.16 mg/kg/injection, schedule: Q01DX001 (ip), vehicle: water 124 % of control | dose: 0.38 mg/kg/injection, schedule: Q01DX001 (ip), vehicle: water 124 % of control

COC1=CC(=O)N(C(=O)C2CSC(C(CO)NC(=O)c3csc(/C=N/O)n3)=N2)C1 (stereo unspecified)
inactive: [6] 97 % of control | dose: 400.0 mg/kg/injection, schedule: Q01DX009 (ip), vehicle: Klucel (hydroxypropylcellulose) (HPC) 106 % of control

COc1ccc(C(=O)c2no[n+]([O-])c2C(=O)c2ccc(OC)cc2)cc1
inactive: [7] 95 % of control | [8] 107 % of control | [9] 101 % of control | dose: 100.0 mg/kg/injection, schedule: Q01DX009 (ip), vehicle: saline with Tween-80 95 % of control | dose: 200.0 mg/kg/injection, schedule: Q01DX009 (ip), vehicle: saline with Tween-80 87 % of control | dose: 400.0 mg/kg/injection, schedule: Q01DX009 (ip), vehicle: saline with Tween-80 113 % of control

FC(F)(F)c1ccc2c(c1)N(CCCN1CCN(CCC3OCCCO3)CC1)c1ccccc1S2
inactive: dose: 0.78 mg/kg/injection, schedule: Q01DX009 (ip), vehicle: saline 116 % of control | [1] 118 % of control | [2] 90 % of control | [3] 115 % of control

O=C1C2CC=CCC2C(=O)N1SC(Cl)(Cl)Cl (stereo unspecified)
inactive: dose: 0.2 mg/kg/injection, schedule: Q01DX009 (ip), vehicle: saline with Tween-80 98 % of control | dose: 0.4 mg/kg/injection, schedule: Q01DX009 (ip), vehicle: saline with Tween-80 100 % of control | dose: 0.8 mg/kg/injection, schedule: Q01DX009 (ip), vehicle: saline with Tween-80 97 % of control | dose: 3.13 mg/kg/injection, schedule: Q01DX009 (ip), vehicle: saline with Tween-80 88 % of control
